Results on 1 compound are retold here after US20140227741A1, “Biological Systems for Production of Highest Quality Proteins” (Mediterranean Institute for Life Sciences, priority 2012, published 2014).

Assay [1] deals with reactive oxygen species (ROS) level. The assay can be described thus: Effect of 1 mM trolox on reactive oxygen species (ROS) level. Format: cell-based, E. coli. The text has this: (§1) The functional defects of proteins, correlating with their oxidative damage (carbonylation), can be suppressed by antioxidants in proportion to the extent of the decrease in protein carbonylation. This is illustrated by the effects of trolox (6-hydroxy-2,5,7,8-tetramethylchroman-2-carboxylic acid) on the reduction of ROS species levels and PC levels as given in Table 2.

Assay [2] concerns protein carbonylation (PC) amount. The experiment in a line: Effect of 1 mM trolox on protein carbonylation (PC) amount. It counts as cell-based, E. coli.
Source text: as §1
The procedure for the quantification of protein carbonylation by ELISA method is as follows. The steps of protein extraction are as described in Example 1 (steps 1 and 2). Protein […] concentration is determined and adjusted so that the proteins are loaded into ELISA wells at 10 μg/mL. Adsorbed proteins are derivatized by using 12 μg/mL DNPH. Derivatization of adsorbed proteins is followed by detection of derivatized dinitrophenol (DNP)-carbonyl by a rabbit anti-DNP primary antibody (Sigma, D9656) and goat anti-rabbit secondary antibody conjugated to HRP (Jackson ImmunoResearch, 111-035-14). Stocks of antibodies were prepared at ˜1 ug/uL and used at 1:7000 dilutions.

As for `Cc1c(C)c2c(c(C)c1O)CCC(C)(C(=O)O)O2` (stereo not drawn) [trolox, 6-hydroxy-2,5,7,8-tetramethylchroman-2-carboxylic acid], the ROS reduction in assay [1] (strain wt) is given as 0.41; in assay [1] (strain ΔdnaK) it was 0.41; in assay [1] (strain Δtig), 0.45. Also, the PC reduction in assay [2] (strain wt) stood at 0.26; in assay [2] (strain ΔdnaK) it was 0.25; in assay [2] (strain Δtig) it was 0.33.
